“Also recorded” adds a separate entry of the source.
Key:
[1] = system: HET or KO keratinocyte sheets; assay: Monolayer mechanical dissociation assay, SERCA2-deficient keratinocytes; format: cell-based, human; settings: HET or KO monolayers; trametinib 1 μM 48 hours; PD98059 20 μM 24 hours
Description: (§1) Dispase-based mechanical dissociation assays were carried out as described (Simpson C L, et al. Am J Pathol. 2010; 177(6): p. 2921-37). Keratinocytes were plated at a density of 1×10^6 cells per well of 6-well cell culture dishes. Upon reaching confluence, the calcium concentration of the medium was adjusted to 1.3 mM. Vehicle control (DMSO) or chemical inhibitors were added at the following concentrations: […] After 24 to 72 hours, monolayers were washed with PBS and then incubated with 500 μL dispase (5 U/ml) in Hank's balanced salt solution (Stemcell Technologies of Vancouver, CA, Cat. #07913) for 30 minutes at 37° C. Next, 4.5 ml PBS was added to the wells and all liquid plus released monolayers were transferred into 15 mL conical tubes, which were placed together in a rack and inverted 5-10 times to induce mechanical stress. Monolayer fragments were transferred back into 6-well cell culture plates and imaged with a 12-megapixel digital camera. Fragments were counted in Fiji.

[2] = system: NHEK monolayers; assay: Monolayer mechanical dissociation assay, SERCA2 inhibition with thapsigargin; format: cell-based, human; settings: 24 hours; for integrity of epithelial sheets despite SERCA2 inhibition: with 1 μM TG, 1 μM Tram, 10 μM U0126, 20 μM PD98059, 1 μM dabrafenib
Description: as §1

[3] = system: organotypic epidermis grown from NHEKs; assay: Histology (H&E) of organotypic epidermis treated with TG; format: cell-based, human
[4] = system: NHEK monolayers; assay: Monolayer mechanical dissociation assay, B-RAF inhibitor model of Grover disease; format: cell-based, human; settings: co-treatment with Dab or Vem; trametinib 1 μM, U0126 10 μM, PD98059 20 μM; 24 h
Description: Dispase-based mechanical dissociation assays were carried out as described (70). Keratinocytes were plated at a density of 1×10^6 cells per well of 6-well cell culture dishes. Upon reaching confluence, the cells were switched into E-medium. Vehicle control (DMSO) or chemical inhibitors were added at the following concentrations: Dabrafenib (1 μM), vemurafenib (10 μM) trametinib (1 μM), U0126 (10 μM), or PD98059 (20 μM). After 24 h, monolayers were washed with PBS and then incubated with 500 μL dispase (5 U/ml) in Hank's balanced salt solution (Stemcell Technologies of Vancouver, Canada, Cat. #07913) for 30 minutes at 37° C. Next, 4.5 mL PBS was added to the wells and all liquid plus released monolayers were transferred into 15 mL conical tubes, which were placed together in a rack and inverted 1-10 times to induce mechanical stress. Monolayer fragments were transferred back into 6-well cell culture plates and imaged with a 12-megapixel digital camera. Fragments were counted in Fiji.

[5] = system: HET cells (SERCA2-depleted keratinocytes, THEKs); assay: RT-qPCR of keratinocyte mRNA transcripts; format: cell-based, human; settings: HET cells in E-medium 24 hours; trametinib 1 μM, U0126 10 μM, PD184352 10 μM
Description: THEKs were seeded at a density of 1×10^6 cells per well of 6-well cell culture dishes in complete KSFM. Upon reaching confluence, KSFM was replaced with E-medium containing vehicle control (DMSO) or inhibitors at the following concentrations: Trametinib (1 μM), U0126 (10 μM), or PD184352 (10 μM). At the indicated time points, cell culture medium was removed and cells were washed once with PBS. RNA was extracted using the NucleoSpin RNA Plus Kit (Machery-Nagel of Duren, Germany) followed by reverse-transcription with the iScript cDNA synthesis kit (Bio-Rad of Hercules, CA) according to the manufacturer's instructions. Copy DNAs, also referred to as complementary DNAs (cDNAs) were diluted 5-fold and 2 μL of the resulting cDNAs were used for each 10 μL quantitative polymerase chain reaction (qPCR) assay. Real-time qPCR assays were carried out using the TaqMan Gene expression master mix (Applied Biosystems of Waltham, MA) according to the manufacturer's protocol. Pre-designed TaqMan probes from Thermo-Fisher were used for quantification of human Actb (Hs01060665_g1), Krt1 (Hs00196158_m1), Krt10 (Hs00166289_m1), Krt14 (Hs00265033_m1), Dsg1 (Hs00355084_m1), Alox12b (Hs00153961_m1), Alox15b (Hs00153988_m1), Ifi27 (Hs01086373_g1), Trpv3 (Hs00376854_m1), Trpv4 (Hs01099348_m1), or Notch1 (Hs01062014_m1). The housekeeping gene Actb was used as an endogenous control and mRNA fold changes were determined using the 2^(−ΔΔCt) method.

[6] = system: NHEKs; assay: KRT10 immunostaining of TG-treated keratinocytes; format: cell-based, human; settings: 1 μM TG alone, 48 hours
Description: Keratinocytes were grown to confluence in 35 mm, glass-bottom cell culture dishes (MatTek of Ashland, MA, #P35G-1.5-20-C). For staining keratins and desmosomal proteins, cells were fixed in ice-cold 100% methanol at −20° C. for 2 minutes, allowed to dry, then re-hydrated in PBS. For staining other proteins, cells were fixed in 4% paraformaldehyde for 10 minutes at 37° C. Fixed cells were then incubated with blocking buffer [0.5% (w/v) bovine serum albumin (BSA, Sigma), 10% (w/v) normal goat serum (NGS, Sigma) in PBS] for 30 minutes at 37° C. Cells were then washed with PBS. Primary antibodies were diluted in 0.5% (w/v) BSA in PBS and incubated on the cells overnight at 4° C. Primary antibody dilutions were as follows: rabbit anti-SERCA2 (1:200), rabbit anti-cytokeratin 10 (1:2,000), mouse anti-Desmoglein 1 (1:100), mouse anti-Desmoglein 2 (1:100), mouse anti-Desmoglein 3 (1:100), mouse anti-Plakoglobin (1:100), rabbit anti-PERK1/2 (1:400), and mouse anti-ERK1/2 (1:400). Cells were washed three times with PBS, then incubated with species-specific secondary antibodies diluted at 1:300 (with or without Hoechst at 1:500) in 0.5% (w/v) BSA in PBS for 30 min at 37° C. […]
Fluorescence microscopy images were analyzed using Fiji software. Quantification of fluorescence intensity was performed in a blinded manner using non-visibly identifiable microscopy images. […]

[7] = system: organotypic cultures of NHEKs; assay: Immunostaining of KRT10 and pERK in organotypic epidermis treated with TG; format: cell-based, human; settings: 1 μM TG, 48 hours
Description: Paraffin-embedded formalin-fixed tissue cross-sections on glass slides were incubated at 65° C. for 2 h. Sections were prepared for staining by immersion in 3 baths of xylenes (Thermo-Fisher) for 5 min each, followed by 3 baths of 95% ethanol for 5 min each, then 70% ethanol for 5 minutes, and finally 3 baths of PBS for 5 min each. Slides were then submerged in antigen retrieval solution [0.1 M sodium citrate (pH 6.0) with 0.05% (v/v) Tween-20] and heated to 95° C. for 15 min. Slides were allowed to cool to room temperature and then washed with PBS. Tissue sections were encircled with a hydrophobic barrier using a PAP pen. Tissue sections were incubated in blocking buffer [0.5% (w/v) BSA, 10% (v/v) NGS in PBS] for 30 minutes at 37° C. in a humidified chamber. […]
Fluorescence images of immunostained tissue sections were captured by SDC microscopy as above and analyzed using Fiji. Quantification of fluorescence intensity was performed in using non-visibly labeled images from immunostained tissue cross-sections. The Fiji “Measure” function was used to calculate the mean intensity of the fluorescence signal and the mean background fluorescence intensity, which was subtracted from each value. The net fluorescence intensity was averaged across multiple non-overlapping HPF and the values from control cultures were normalized to an average value of 1.

[8] = B-RAF inhibitor monotherapy for cancer (Carlos G, et al. 2015); cited from earlier work

COc1cccc(-c2cc(=O)c3ccccc3o2)c1N [PD98059]
resistance of keratinocyte sheets to mechanical stress (number of fragments) [1]: similarly rescued cohesion
integrity of epithelial sheets despite SERCA2 inhibition [2]: restored
effect on TG-induced loss of keratinocyte cohesion ([3]; 1 μM TG plus 20 μM PD98059 or 1 μM trametinib): mitigated; also recorded: improved keratinocyte cohesion
effect on TG-induced retention of nuclei in cornified layers / cornification ([3]; 1 μM TG plus 20 μM PD98059 or 1 μM trametinib, 48 hours): reduced TG-induced retention of nuclei in the cornified layers; also recorded: normalization of cornification
integrity of keratinocyte sheets despite B-RAF inhibition [4]: comparably rescued cell cohesion

O=C(NOCC1CC1)c1ccc(F)c(F)c1Nc1ccc(I)cc1Cl [PD184352]
DSG1 mRNA expression [5]: sufficient to augment expression
KRT1 mRNA expression [5]: sufficient to augment expression
KRT10 mRNA expression [5]: sufficient to augment expression
KRT14 mRNA levels [5]: did not significantly alter

C/C=C(/C)C(=O)O[C@H]1C(C)=C2[C@H]([C@@H]1OC(=O)CCCCCCC)[C@@](C)(OC(C)=O)C[C@H](OC(=O)CCC)[C@@]1(O)[C@H]2OC(=O)[C@@]1(C)O [TG, thapsigargin]
epithelial sheet fragmentation ([2]; 1 μM TG alone): significant increase in epithelial sheet fragmentation; also recorded: readily fragmented
KRT10 up-regulation by immunostaining [6]: suppressed their ability to up-regulate KRT10
keratinocyte cohesion in organotypic epidermis ([3]; 1 μM TG alone, 48 hours): disrupted keratinocyte cohesion most notably between basal and suprabasal cell layers; also recorded: loss of keratinocyte cohesion; also recorded: separation between basal and suprabasal layers
retention of nuclei in cornified layers ([3]; 1 μM TG alone, 48 hours): retention of nuclei in the cornified layers
KRT10 immunostaining in organotypic epidermis [7]: reduction in KRT10
pERK (ERK activation) in organotypic epidermis [7]: ERK hyper-activation

N#CC(=C(/N)Sc1ccccc1N)/C(C#N)=C(\N)Sc1ccccc1N [U0126]
DSG1 mRNA expression [5]: sufficient to augment expression
KRT1 mRNA expression [5]: sufficient to augment expression
KRT10 mRNA expression [5]: sufficient to augment expression
KRT14 mRNA levels [5]: did not significantly alter
integrity of epithelial sheets despite SERCA2 inhibition [2]: restored
integrity of keratinocyte sheets despite B-RAF inhibition [4]: comparably rescued cell cohesion

CCCS(=O)(=O)Nc1ccc(F)c(C(=O)c2c[nH]c3ncc(-c4ccc(Cl)cc4)cc23)c1F [vemurafenib]
patients in whom GD was seen [8]: 38.9%

Reference: patent US20240299394A1, “TARGETED TREATMENT FOR SKIN FRAGILITY DISEASES” (University of Washington, priority 2023, published 2024)
